Consider 20 compounds from patent publication US5914339A, “Substituted 1,3-benzodioxoles” (American Home Products Corporation, priority 1997, dated 1999).

The target in the experiment is human β2 adrenergic receptor (Homo sapiens, UniProt P07550). The experiment is described as follows: cell-based. The settings on record: 10 min, read-out: β2: % of isoproterenol activity (increase in cAMP). How it is done: The activity of the test compounds on human β-adrenergic receptors was determined with Chinese hamster ovary (CHO) cells transfected with human β2, or β1 adrenergic receptors. Agonist activity is indicated by increased cAMP levels in the CHO cells. Selectivity of the test compounds for the β3 receptor was assessed by comparison with results in β2 and β1 adrenergic receptor transfected cells.
1). Chinese hamster ovary (CHO) cells transfected with human β2, or β1 adrenergic receptors were used in the assay.
2). Cells were grown to confluent conditions in 24 well plates.
3). Drugs were dissolved in DMSO at a concentration of 10 μM.
4). Cells were incubated with drug at 10 nM concentration for 10 min at 37° C.
5). Cell cAMP concentrations were assayed using a scintillation proximity assay kit from Amersham Corp., Chicago, Ill.
6). Activities for the test compounds are expressed as a percentage of the isoproterenol response.
Production of the CHO cells transfected with human β2, or β1 adrenergic receptors, and compound test procedures utilizing the CHO cells, are described by Emorine et al. in their article "Molecular Characterization of the Human Beta3 -Adrenergic Receptor", Science 1989, 245(8), 1118-1121 and by Muzzin et al. in the article "An Adipose Tissue-Specific Beta3 -Adrenergic Receptor", J. Biol. Chem.1991, 266, 24053-24058.
^a Human β receptors expressed in Chinese hamster ovary cells,
compounds tested at 10 nM, results expressed as % of isoproterenol
activity (increase in cAMP) at 10 μM. EC50 (μM) values
determined for selected compounds.

[1] abbreviates: compounds tested at 10 nM, isoproterenol at 10 μM, CHO cells, 10 min at 37° C.

Where two headings read alike, the source gives them in different places.

human β2 adrenergic receptor, sequence (P07550 whole entry): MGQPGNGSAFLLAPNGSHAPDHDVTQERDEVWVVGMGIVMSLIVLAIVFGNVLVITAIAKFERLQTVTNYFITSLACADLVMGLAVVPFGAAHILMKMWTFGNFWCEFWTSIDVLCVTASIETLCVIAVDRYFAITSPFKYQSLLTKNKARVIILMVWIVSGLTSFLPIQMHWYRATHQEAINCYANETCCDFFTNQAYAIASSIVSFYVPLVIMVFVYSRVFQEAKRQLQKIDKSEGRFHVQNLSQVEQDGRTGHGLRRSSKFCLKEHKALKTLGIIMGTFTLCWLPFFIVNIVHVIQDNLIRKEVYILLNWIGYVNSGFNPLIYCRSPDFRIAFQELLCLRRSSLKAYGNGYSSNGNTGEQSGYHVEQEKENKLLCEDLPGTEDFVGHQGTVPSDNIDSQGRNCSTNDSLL

With `CC(Cc1ccc2c(c1)OC(C(=O)OC[Si](C)(C)C)(C(=O)OC[Si](C)(C)C)O2)NCC(O)c1cccc(Cl)c1` (centres unmarked) [Example 30, 5-{2-[2-(3-Chloro-phenyl)-2-hydroxy-ethylamino]-propyl}-benzo[1,3]dioxole-2,2-dicarboxylic acid bis-trimethylsilanylmethyl ester], where the note is “CHO”, the activation at 0.01 µM was determined as 0%. The same measure, in the same setting: for `CC(Cc1ccc2c(c1)OC(C(=O)OCCC[Si](C)(C)C)(C(=O)OCCC[Si](C)(C)C)O2)NCC(O)c1cccc(Cl)c1` (centres unmarked) [Example 32, 5-{2-[2-(3-Chloro-phenyl)-2-hydroxy-ethylamino]-propyl}-benzo[1,3]dioxole-2,2-dicarboxylic acid bis-(3-trimethylsilanyl-propyl) ester] the value was 2%. Turning to `CC(Cc1ccc2c(c1)OC(C(=O)OCC1CCCCC1)(C(=O)OCC1CCCCC1)O2)NCC(O)c1cccc(Cl)c1` (centres unmarked) [Example 34, 5-{2-[2-(3-Chloro-phenyl)-2-hydroxy-ethylamino]-propyl}-benzo[1,3]dioxole-2,2-dicarboxylic acid bis-cyclohexylmethyl ester], under setting [1], the activation at 0.01 µM was determined as 2%. On the same count and under the same terms, for `CC(C)CCCOC(=O)C1(C(=O)OCCCC(C)C)Oc2ccc(CC(C)NCC(O)c3cccc(Cl)c3)cc2O1` (centres unmarked) [Example 35, 5-{2-[2-(3-Chloro-phenyl)-2-hydroxy-ethylamino]-propyl}-benzo[1,3]dioxole-2,2-dicarboxylic acid bis-(4-methyl-pentyl) ester] the value was 4%; for `CC(Cc1ccc2c(c1)OC(C(=O)OCCC1CCCCC1)(C(=O)OCCC1CCCCC1)O2)NCC(O)c1cccc(Cl)c1` (centres unmarked) [Example 36, 5-{2-[2-(3-Chloro-phenyl)-2-hydroxy-ethylamino]-propyl}-benzo[1,3]dioxole-2,2-dicarboxylic acid bis-(2-cyclohexyl-ethyl) ester], 2%. Same read-out and setting: under `CC(Cc1ccc2c(c1)OC(C(=O)OCCCC1CCCC1)(C(=O)OCCCC1CCCC1)O2)NCC(O)c1cccc(Cl)c1` (centres unmarked) [Example 37, 5-{2-[2-(3-Chloro-phenyl)-2-hydroxy-ethylamino]-propyl}-benzo[1,3]dioxole-2,2-dicarboxylic acid bis-(3-cyclopentyl-propyl) ester] stands 3%.

For `CC(Cc1ccc2c(c1)OC(C(=O)OCC1(C)CC1)(C(=O)OCC1(C)CC1)O2)NCC(O)c1cccc(Cl)c1` (centres unmarked) [Example 39, 5-{2-[2-(3-Chloro-phenyl)-2-hydroxy-ethylamino]-propyl}-benzo[1,3]dioxole-2,2-dicarboxylic acid bis-(1-methyl-cyclopropylmethyl) ester], under setting [1], the activation at 0.01 µM stood at 1%.

`CC(Cc1ccc2c(c1)OC(C(=O)OCCC1CCCC1)(C(=O)OCCC1CCCC1)O2)NCC(O)c1cccc(Cl)c1` (centres unmarked) [Example 41, 5-{2-[2-(3-Chloro-phenyl)-2-hydroxy-ethylamino]-propyl}-benzo[1,3]dioxole-2,2-dicarboxylic acid bis-(2-cyclopentyl-ethyl) ester]: under setting [1], the activation at 0.01 µM is 22%. On to `CC(=O)OCOC(=O)C1(C(=O)OCOC(C)=O)Oc2ccc(CC(C)NCC(O)c3cccc(Cl)c3)cc2O1` (centres unmarked) [Example 42, 5-{2-[2-(3-Chloro-phenyl)-2-hydroxyethylamino]propyl}benzo[1,3] dioxole-2,2-dicarboxylic acid bis-acetoxymethyl ester], for which the activation at 0.01 µM under setting [1] amounted to 0%.

On to `CCC(=O)OCOC(=O)C1(C(=O)OCOC(=O)CC)Oc2ccc(CC(C)NCC(O)c3cccc(Cl)c3)cc2O1` (centres unmarked) [Example 43, 5-{2-[2-(3-Chloro-phenyl)-2-hydroxyethylamino]propyl}benzo[1,3] dioxole-2,2-dicarboxylic acid bis-propionyloxymethyl ester], for which the activation at 0.01 µM under setting [1] was determined as 0%. The same measure, in the same setting: for `CCCC(=O)OCOC(=O)C1(C(=O)OCOC(=O)CCC)Oc2ccc(CC(C)NCC(O)c3cccc(Cl)c3)cc2O1` (centres unmarked) [Example 44, 5-{2-[2-(3-Chloro-phenyl)-2-hydroxyethylamino]propyl}benzo[1,3] dioxole-2,2-dicarboxylic acid bis-butyryloxymethyl ester] the value was 0%; for `CC(Cc1ccc2c(c1)OC(C(=O)OCOC(=O)C(C)C)(C(=O)OCOC(=O)C(C)C)O2)NCC(O)c1cccc(Cl)c1` (centres unmarked) [Example 45, 5-{2-[2-(3-Chloro-phenyl)-2-hydroxyethylamino]propyl}benzo[1,3] dioxole-2,2-dicarboxylic acid bis-isobutyryloxymethyl ester], 1%; for `CCCCCCC(=O)OCOC(=O)C1(C(=O)OCOC(=O)CCCCCC)Oc2ccc(CC(C)NCC(O)c3cccc(Cl)c3)cc2O1` (centres unmarked) [Example 46, 5-{2-[2-(3-Chloro-phenyl)-2-hydroxyethylamino]propyl}benzo[1,3] dioxole-2,2-dicarboxylic acid bis-heptanoyloxymethyl ester], 16%. On the same count and under the same terms, under `CC(C)CCC(=O)OCOC(=O)C1(C(=O)OCOC(=O)CCC(C)C)Oc2ccc(CC(C)NCC(O)c3cccc(Cl)c3)cc2O1` (centres unmarked) [Example 47, 5-{2-[2-(3-Chloro-phenyl)-2-hydroxyethylamino]propyl}benzo[1,3] dioxole-2,2-dicarboxylic acid bis-(4-methyl-pentanoyloxymethyl) ester] stands 0%. On to `CCCCCC(=O)OCOC(=O)C1(C(=O)OCOC(=O)CCCCC)Oc2ccc(CC(C)NCC(O)c3cccc(Cl)c3)cc2O1` (centres unmarked) [Example 48, 5-{2-[2-(3-Chloro-phenyl)-2-hydroxyethylamino]propyl}benzo[1,3] dioxole-2,2-dicarboxylic acid bis-hexanoyloxymethyl ester], for which, under setting [1], the activation at 0.01 µM was 4%.

On to `CC(Cc1ccc2c(c1)OC(C(=O)OCOC(=O)C(C)(C)C)(C(=O)OCOC(=O)C(C)(C)C)O2)NCC(O)c1cccc(Cl)c1` (centres unmarked) [Example 49, 5-{2-[2-(3-Chloro-phenyl)-2-hydroxyethylamino]propyl}benzo[1,3] dioxole-2,2-dicarboxylic acid bis-(2,2-dimethyl-propionyloxymethyl) ester], for which the activation at 0.01 µM under setting [1] is 4%. `CC(Cc1ccc2c(c1)OC(C(=O)OCOC(=O)C1CCCCC1)(C(=O)OCOC(=O)C1CCCCC1)O2)NCC(O)c1cccc(Cl)c1` (centres unmarked) [Example 50, 5-{2-[2-(3-Chloro-phenyl)-2-hydroxyethylamino]propyl}benzo[1,3] dioxole-2,2-dicarboxylic acid bis-cyclohexanecarbonyloxymethyl ester]: the activation at 0.01 µM under setting [1] was 0%. On the same count and under the same terms, for `CCC(=O)OC(C)OC(=O)C1(C(=O)OC(C)OC(=O)CC)Oc2ccc(CC(C)NCC(O)c3cccc(Cl)c3)cc2O1` (centres unmarked) [Example 51, 5-{2-[2-(3-Chloro-phenyl)-2-hydroxyethylamino]propyl}benzo[1,3] dioxole-2,2-dicarboxylic acid bis-(1-propionyloxy-ethyl) ester] the value was 0%. Consider `CC(Cc1ccc2c(c1)OC(C(=O)OC(C)OC(=O)C(C)(C)C)(C(=O)OC(C)OC(=O)C(C)(C)C)O2)NCC(O)c1cccc(Cl)c1` (centres unmarked) [Example 52], for which, under setting [1], the activation at 0.01 µM stood at 2%. Still for that read-out and setting: under `CC(Cc1ccc2c(c1)OC(C(=O)OCOC(=O)CC(C)(C)C)(C(=O)OCOC(=O)CC(C)(C)C)O2)NCC(O)c1cccc(Cl)c1` (centres unmarked) [Example 53, 5-{2-[2-(3-Chloro-phenyl)-2-hydroxyethylamino]propyl}benzo[1,3] dioxole-2,2-dicarboxylic acid bis-(3,3-dimethyl-butyryloxymethyl) ester] stands 2%.
